Assay results: patent US20110306573A1, “NUCLEOSIDE DERIVATIVES AS INHIBITORS OF VIRAL POLYMERASES” (priority 2008, published 2011)
Counter-ions that a name gives are not always drawn. Like-named read-outs stand apart in the source and are kept apart here.

Legend:
[1] = molecular target: T1, HCV NS5B polymerase (Hepatitis C virus genotype 1b, UniProt P26663); assay: Assay for inhibition of HCV NS5B polymerase (RdRp, 3H-UTP incorporation on heteromeric RNA template); assay type: biochemical; settings: heterogeneous template dCoh, 2 nM DC55-lb.BK or 10 nM DC55-2b.2, NTPs 1 uM, room temperature 2 hours
T1 construct: RNA-dependent RNA polymerase (NS5B) of the hepatitis C virus (HCV)
T1 sequence (P26663 2420-2955): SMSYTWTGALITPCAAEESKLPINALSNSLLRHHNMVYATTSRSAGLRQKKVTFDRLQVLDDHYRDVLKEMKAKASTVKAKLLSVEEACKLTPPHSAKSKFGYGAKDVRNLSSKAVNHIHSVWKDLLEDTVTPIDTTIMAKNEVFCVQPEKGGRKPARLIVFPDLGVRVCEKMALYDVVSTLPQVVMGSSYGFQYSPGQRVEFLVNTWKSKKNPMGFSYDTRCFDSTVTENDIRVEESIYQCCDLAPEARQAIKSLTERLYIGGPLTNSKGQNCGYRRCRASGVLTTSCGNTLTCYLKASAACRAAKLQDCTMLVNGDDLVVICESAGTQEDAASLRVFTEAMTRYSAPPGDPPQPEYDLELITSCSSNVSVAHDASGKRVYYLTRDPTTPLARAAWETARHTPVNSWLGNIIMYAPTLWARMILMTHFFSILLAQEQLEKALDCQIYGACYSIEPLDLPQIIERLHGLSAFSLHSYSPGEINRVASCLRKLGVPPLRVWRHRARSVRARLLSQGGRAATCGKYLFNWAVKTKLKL
Description: The effectiveness of the compounds of the present invention as inhibitors of HCV NS5B RNA-dependent RNA polymerase (RdRp) was measured in the following assay.
This assay was used to measure the ability of the nucleoside derivatives of the present invention to inhibit the enzymatic activity of the RNA-dependent RNA polymerase (NS5B) of the hepatitis C virus (HCV) on a heteromeric RNA template.
Assay Buffer Conditions: (52.5 μL-total/reaction)
20 nM heterogeneous template dCoh
2.5 μl/reaction inhibitor compound in H2O
The compounds were tested at various concentrations up to 100 μM final concentration. Nucleoside derivatives were pipetted into wells of a 96-well plate. The enzyme diluted in the reaction buffer was pipetted into the wells and incubated at room temperature for 10 minutes; then the template dCoh was added and incubated for 10 minutes at room temperature. The reaction was initiated by addition of a mixture of nucleotide triphosphates (NTP's), including the radiolabeled UTP, and allowed to proceed at room temperature for 2 hours. Blank samples were done omitting the dCoh template. The reaction was quenched by addition of 50 ul TCA 20% (trichloroacetic acid)/NaPPi 20 mM and the plates were put in ice for 5 minutes. Then, the mixtures were filtered onto Unifilter GF/B 96-well plates (PerkinElmer), washed with TCA 2.5%. 50 ul/well of scintillator solution (Microscint 20, PerkinElmer) were added and the plates were counted in a scintillator counter.
The percentage of inhibition was calculated according to the following equation:
% Inhibition=[1−(cpm in test reaction−cpm in blank)/(cpm in control reaction−cpm in blank)]×100.

[2] = test system: subgenomic HCV Replicon in HuH-7 hepatoma cells; assay: Assay for inhibition of HCV RNA replication (subgenomic replicon, in situ ribonuclease protection SPA); assay type: cell-based, Hepatitis C Virus
Description: The compounds of the present invention were also evaluated for their ability to affect the replication of Hepatitis C Virus RNA in cultured hepatoma (HuH-7) cells containing a subgenomic HCV Replicon. The details of the assay are described below. This Replicon assay is a modification of that described in V. Lohmann, F. Korner, J-O. Koch, U. Herian, L. Theilmann, and R. Bartenschlager, “Replication of a Sub-genomic Hepatitis C Virus RNAs in a Hepatoma Cell Line,” Science 285:110 (1999).
The assay was an in situ Ribonuclease protection, Scintillation Proximity based-plate assay (SPA). 10,000-40,000 cells were plated in 100-200 μL of media containing 0.8 mg/mL G418 in 96-well cytostar plates (Amersham). Compounds were added to cells at various concentrations up to 100 μM in 1% DMSO at time 0 to 18 h and then cultured for 24-96 h. Cells were fixed (20 min, 10% formalin), permeabilized (20 min, 0.25% Triton X-100/PBS) and hybridized (overnight, 50° C.) with a single-stranded ^33P RNA probe complementary to the (+) strand NS5B (or other genes) contained in the RNA viral genome. Cells were washed, treated with RNAse, washed, heated to 65° C. and counted in a Top-Count Inhibition of replication was read as a decrease in counts per minute (cpm).
Human HuH-7 hepatoma cells, which were selected to contain a subgenomic replicon, carry a cytoplasmic RNA consisting of an HCV 5′ non-translated region (NTR), a neomycin selectable marker, an EMCV IRES (internal ribosome entry site), and HCV non-structural proteins NS3 through NS5B, followed by the 3′ NTR.

[3] = Hepatitis C virus, HuH-7 cells containing a subgenomic HCV Replicon, compounds up to 100 μM in 1% DMSO, cultured 24-96 h, read-out: EC50

Compound	EC50 [2, 3] [µM]	further results
7-(2-C-methyl-5-triphospho-β-D-ribofuranosyl)-5-(1-methyl-1H-tetrazol-5-yl)-7H-pyrrolo[2,3-d]pyrimidin-4-amine and 7-(2-C-methyl-5-triphospho-β-D-ribofuranosyl)-5-(2-methyl-2H-tetrazol-5-yl)-7H-pyrrolo[2,3-d]pyrimidin-4-amine [Compound 10]		IC50 [1]: < 50 µM
7-(2-C-methyl-β-D-ribofuranosyl)-5-(1-methyl-1H-tetrazol-5-yl)-7H-pyrrolo[2,3-d]pyrimidin-4-amine (A) and 7-(2-C-methyl-β-D-ribofuranosyl)-5-(2-methyl-2H-tetrazol-5-yl)-7H-pyrrolo[2,3-d]pyrimidin-4-amine (B) [Compound 1]		EC50 ([2]; HuH-7 cells containing a subgenomic HCV Replicon, compounds up to 100 μM in 1% DMSO, cultured 24-96 h, read-out: EC50): < 20 µM
CCOC(=O)[C@H](C)NP(=O)(OC[C@H]1O[C@@H](n2cc(-c3ccn[nH]3)c3c(N)ncnc32)[C@](C)(O)[C@@H]1O)Oc1ccccc1 (stereo in doubt) [Compound 29, Ethyl 2-{[(R)-({(2R,3S,4R,5R)-5-[4-amino-5-(1H-pyrazol-5-yl)-7H-pyrrolo[2,3-d]pyrimidin-7-yl]-3,4-dihydroxy-4-methyltetrahydrofuran-2-yl}methoxy)(phenoxy)phosphoryl]amino}propanoate]		EC50 ([2]; Hepatitis C virus, Huh-7): < 20 µM
CCOC(=O)[C@H](C)NP(=O)(OC[C@H]1O[C@@H](n2cc(-c3ncco3)c3c(N)ncnc32)[C@](C)(O)[C@@H]1O)Oc1ccccc1 (stereo in doubt) [Compound 30, Ethyl 2-{[(R)-({(2R,3S,4R,5R)-5-[4-amino-5-(1,3-oxazol-2-yl)-7H-pyrrolo[2,3-d]pyrimidin-7-yl]-3,4-dihydroxy-4-methyltetrahydrofuran-2-yl}methoxy)(phenoxy)phosphoryl]amino}propanoate]		EC50 ([2]; Hepatitis C virus, Huh-7): < 20 µM
C[C@@]1(O)[C@H](O)[C@@H](CO)O[C@H]1n1cc(-c2ncco2)c2c(N)ncnc21 [Compound 2, 7-(2-C-methyl-β-D-ribofuranosyl)-5-(1,3-oxazol-2-yl)-7H-pyrrolo[2,3-d]pyrimidin-4-amine]	< 20	
C[C@@]1(O)[C@H](O)[C@@H](CO)O[C@H]1n1cc(-c2ncccn2)c2c(N)ncnc21 [Compound 3, 7-(2-C-methyl-β-D-ribofuranosyl)-5-pyrimidin-2-yl-7H-pyrrolo[2,3-d]pyrimidin-4-amine]	> 50	
COc1nc(-c2cn([C@@H]3O[C@H](CO)[C@@H](O)[C@@]3(C)O)c3ncnc(N)c23)cs1 [Compound 4, 5-(2-methoxy-1,3-thiazol-4-yl)-7-(2-C-methyl-β-D-ribofuranosyl)-7H-pyrrolo[2,3-d]pyrimidin-4-amine trifluoroacetate]		EC50 ([2]; Hepatitis C virus, Huh-7): > 50 µM
C[C@@]1(O)[C@H](O)[C@@H](CO)O[C@H]1n1cc(-c2ccn[nH]2)c2c(N)ncnc21 [Compound 5, 7-(2-C-methyl-β-D-ribofuranosyl)-5-(1H-pyrazol-5-yl)-7H-pyrrolo[2,3-d]pyrimidin-4-amine]	20 to 50	
C[C@@]1(O)[C@H](O)[C@@H](CO)O[C@H]1n1cc(-c2cn[nH]c2)c2c(N)ncnc21 [Compound 6, 7-(2-C-methyl-β-D-ribofuranosyl)-5-(1H-pyrazol-4-yl)-7H-pyrrolo[2,3-d]pyrimidin-4-amine]	20 to 50	
C[C@@]1(O)[C@H](O)[C@@H](CO)O[C@H]1n1cc(-c2ncon2)c2c(N)ncnc21 [Compound 7, 7-(2-C-methyl-β-D-ribofuranosyl)-5-(1,2,4-oxadiazol-3-yl)-7H-pyrrolo[2,3-d]pyrimidin-4-amine]	< 20	
Cn1cc(-c2cn([C@@H]3O[C@H](CO)[C@@H](O)[C@@]3(C)O)c3ncnc(N)c23)nn1 [Compound 8, 7-(2-C-methyl-β-D-ribofuranosyl)-5-(1-methyl-1H-1,2,3-triazol-4-yl)-7H-pyrrolo[2,3-d]pyrimidin-4-amine trifluoroacetate]		EC50 ([2]; Hepatitis C virus, Huh-7): 20 to 50 µM
C[C@@]1(O)[C@H](O)[C@@H](CO)O[C@H]1n1cc(-c2cccs2)c2c(N)ncnc21 [Compound 9, 7-(2-C-methyl-β-D-ribofuranosyl)-5-(2-thienyl)-7H-pyrrolo[2,3-d]pyrimidin-4-amine]	< 20	
C[C@@]1(O)[C@H](O)[C@@H](COP(=O)(O)OP(=O)(O)OP(=O)(O)O)O[C@H]1n1cc(-c2ncco2)c2c(N)ncnc21 [Compound 11, 7-(2-C-methyl-5-triphospho-β-D-ribofuranosyl)-5-(1,3-oxazol-2-yl)-7H-pyrrolo[2,3-d]pyrimidin-4-amine]		IC50 [1]: < 1 µM
C[C@@]1(O)[C@H](O)[C@@H](COP(=O)(O)OP(=O)(O)OP(=O)(O)O)O[C@H]1n1cc(-c2ncccn2)c2c(N)ncnc21 [Compound 12, 7-(2-C-methyl-5-triphospho-β-D-ribofuranosyl)-5-pyrimidin-2-yl-7H-pyrrolo[2,3-d]pyrimidin-4-amine]		IC50 [1]: < 50 µM
COc1nc(-c2cn([C@@H]3O[C@H](COP(=O)(O)OP(=O)(O)OP(=O)(O)O)[C@@H](O)[C@@]3(C)O)c3ncnc(N)c23)cs1 [Compound 13, 5-(2-methoxy-1,3-thiazol-4-yl)-7-(2-C-methyl-5-triphospho-β-D-ribofuranosyl)-7H-pyrrolo[2,3-d]pyrimidin-4-amine]		IC50 [1]: < 50 µM
C[C@@]1(O)[C@H](O)[C@@H](COP(=O)(O)OP(=O)(O)OP(=O)(O)O)O[C@H]1n1cc(-c2cc[nH]n2)c2c(N)ncnc21 [Compound 14, 7-(2-C-methyl-5-triphospho-β-D-ribofuranosyl)-5-(1H-pyrazol-5-yl)-7H-pyrrolo[2,3-d]pyrimidin-4-amine]		IC50 [1]: < 1 µM
C[C@@]1(O)[C@H](O)[C@@H](COP(=O)(O)OP(=O)(O)OP(=O)(O)O)O[C@H]1n1cc(-c2cn[nH]c2)c2c(N)ncnc21 [Compound 15, 7-(2-C-methyl-5-triphospho-β-D-ribofuranosyl)-5-(1H-pyrazol-4-yl)-7H-pyrrolo[2,3-d]pyrimidin-4-amine]		IC50 [1]: < 50 µM
C[C@@]1(F)[C@H](O)[C@@H](CO)O[C@H]1n1cc(-c2ccn[nH]2)c2c(N)ncnc21 [Compound 21, 7-(2-deoxy-2-fluoro-2-methyl-β-D-ribofuranosyl)-5-(1H-pyrazol-5-yl)-7H-pyrrolo[2,3-d]pyrimidin-4-amine]	20 to 50	
C[C@@]1(F)[C@H](O)[C@@H](CO)O[C@H]1n1cc(-c2ncco2)c2c(N)ncnc21 [Compound 22, 7-(2-deoxy-2-fluoro-2-methyl-β-D-ribofuranosyl)-5-(1,3-oxazol-2-yl)-7H-pyrrolo[2,3-d]pyrimidin-4-amine]	20 to 50	
C[C@@]1(F)[C@H](O)[C@@H](CO)O[C@H]1n1cc(-c2ncon2)c2c(N)ncnc21 [Compound 23, 7-(2-deoxy-2-fluoro-2-methyl-β-D-ribofuranosyl)-5-(1,2,4-oxadiazol-3-yl)-7H-pyrrolo[2,3-d]pyrimidin-4-amine]	20 to 50	
COc1ccc(-c2cn([C@@H]3O[C@H](CO)[C@@H](O)[C@@]3(C)O)c3ncnc(N)c23)cn1 [Compound 24, 7-(2-C-methyl-β-D-ribofuranosyl)-5-(6-methoxypyridin-3-yl)-7H-pyrrolo[2,3-d]pyrimidin-4-amine]	> 50	
C[C@@]1(O)[C@H](O)[C@@H](CO)O[C@H]1n1nc(-c2cc[nH]n2)c2c(N)ncnc21 [Compound 25, 1-(2-C-methyl-β-D-ribofuranosyl)-3-(1H-pyrazol-3-yl)-1H-pyrazolo[3,4-d]pyrimidin-4-amine]	< 20	
C[C@@]1(O)[C@H](O)[C@@H](CO)O[C@H]1n1cc(-c2nnco2)c2c(N)ncnc21 [Compound 27, 7-(2-C-methyl-β-D-ribofuranosyl)-5-(1,3,4-oxadiazol-2-yl)-7H-pyrrolo[2,3-d]pyrimidin-4-amine]	< 20	
